Here are results for 35 compounds from a melting point compilation (Tetko et al.; mined from patent text by program, amines drawn as free bases though some values may be those of a salt).

The compound `O=C(NNC1=NS(=O)(=O)c2ccccc21)c1ccncc1` had a melting point of 288 to 289 °C.

Take `Cc1cc(CC(=O)OC(C)(C)C)ccc1NC(=O)Nc1ccccc1C(F)(F)F`: the melting point lay within 178 to 180 °C.

For `NS(=O)(=O)c1ccc(-n2nc(CCCNC(=O)Nc3ccc(OC(F)(F)F)cc3)cc2-c2ccccc2)cc1`, the melting point was 206 to 207 °C.

The compound `C1=C(c2cccc3ccccc23)CCN(Cc2ccccc2)C1` had a melting point of 72 to 74 °C.

`CN(C)Cc1ccc(CNCCN2CCNC2=C(C#N)C#N)o1`: the melting point fell in the range of 159 to 160 °C.

`CCCc1nn(-c2ccc(C(F)(F)F)cn2)cc1CCCOc1cc(CC(=O)O)ccc1OCC` yielded a melting point of 124 to 125 °C.

`CN1CC(CN2CC(=O)NC2=O)CC2c3cccc4c3c(cn4C)CC21` (stereo not given): the melting point was 292 to 294 °C.

The compound `CC(C)(C)OC(=O)N1CCO[C@@H](c2ccc(Br)cc2)C1` displayed a melting point of 97.2 °C.

Compound `COc1cc(-c2ccc(Cl)cc2)nc2c(C(=O)Nc3cccc(S(C)(=O)=O)c3)cnn12` displayed a melting point of 265 °C.

Take `CC(C)=CC(=O)c1sccc1O`: the melting point lay within 32 to 33 °C.

Turning to `C=CCn1cc(C(=O)O)c(=O)c2cc(F)c(N3CCNCC3)cc21`, the melting point was 136 °C.

For `CCCCc1nn(-c2cc(NC(=O)CC)ccc2C(F)(F)F)c(=O)n1Cc1ccc(-c2ccccc2S(=O)(=O)NC(=O)c2ccccc2F)cc1F`, the melting point lay in the range of 119 to 122 °C.

For the compound `N#Cc1c(N)nc2ccccc2c1Cl`, the melting point was determined as 210 °C.

For `COC(=O)c1ccc2scc(Br)c2c1`, the melting point lay in the range of 93 to 94 °C.

`COC(=O)CN1C(=O)C(C(C)C)Sc2ccccc21` (stereo not given): the melting point was in the range of 81 to 82 °C.

In turn, `CCCCCCCCCCc1csc2c1S(=O)(=O)c1c(CCCCCCCCCC)csc1-2` displayed a melting point of 58.7 to 60.3 °C.

The compound `O=C(Nc1ccc(N2CCN(C(=O)Nc3ccc(OCCO)cc3Cl)CC2)cc1)Nc1ccccc1F` returned a melting point of 213 to 217 °C.

In turn, `Fc1ccc(Cn2ccc3cc(Br)ccc32)cc1` displayed a melting point of 57 to 58 °C.

For the compound `Nc1ccc(NC(=O)NC(=O)c2c(F)cccc2F)cc1`, the melting point was found to be 240 °C.

Consider `COC(=O)C1(O)CSC(SC(C)=O)=C1Cl` (stereo not given), for which the melting point fell in the range of 133 to 135 °C.

For `O=C1Nc2cc3c(cc2OC1CCCN1CCN(c2ccc(F)cc2)CC1)CCCC3` (stereo not given), the melting point lay within 156 to 157 °C.

On to `COc1ccccc1NS(=O)(=O)c1ccc(F)cc1`, for which the melting point fell in the range of 101 to 102 °C.

`CC(C)SC1=N/C(=C\c2c[nH]c3ncc(Cl)cc23)C(=O)N1` yielded a melting point of 291 to 293 °C.

For `c1ccc2c(c1)nc(-c1ccc3c(c1)OCO3)n2Cc1ccc2c(c1)OCO2`, the melting point lay within 173 to 174 °C.

Consider `COC(=O)Cc1ccc2occ(-c3ccc(Br)cc3)c2c1`, for which the melting point lay within 84 to 86 °C.

`O=C(O)c1nn(Cc2ccc(Cl)cc2Cl)c2c1Cc1cc(Cl)ccc1-2` showed a melting point above 260 °C.

For the compound `O=C1CCCN1C(=O)NCCCN1CC=C(c2ccc(Cl)c(Cl)c2)CC1`, the melting point turned out to be 136 °C.

In turn, `COc1ccc(C)cc1NC(=O)Nc1ccc(C2=CCN(C(=O)Nc3ccc(OCCO)cc3Cl)CC2)cc1` displayed a melting point of 117 to 120 °C.

As for `CCCCCc1ccc(C(O)(c2c(C)cc(C)c(C)c2OC)C(C)C)cc1` (stereo not given), the melting point came to 55 °C.

In turn, `O=C1COc2cc(Nc3ccc(O)cc3)ccc2N1` returned a melting point of 270 to 275 °C.

On to `CCCN(CCc1ccccc1)CCc1cccc2[nH]c(=S)[nH]c12`, for which the melting point lay in the range of 198 to 201 °C.

As for `CCn1c2ccccc2c2c3c(nc(C)c21)CC(C)(C)CC3=O`, the melting point lay within 174 to 177 °C.

Turning to `COc1ccccc1CNc1ccc2cc(Nc3nccc(C(F)(F)F)n3)ccc2n1`, the melting point was 114 °C.

For the compound `Nc1cc(C=C2OC(=O)c3ccccc32)ccc1F`, the melting point was 189 to 191 °C.

`CNCNc1cc(C(N)=O)ccc1C(C)(C)C` showed a melting point of 143 to 144 °C.
